Reference: article PMC4322365, “A Ligand-observed Mass Spectrometry Approach Integrated into the Fragment Based Lead Discovery Pipeline” (Scientific Reports, 2015)

Biological target: T1, NS5B wild-type (Hepatitis C virus genotype 1b, UniProt P26663)
T1 construct: NS5B with a C-terminal 10-His tag was expressed in E. coli; 10-His (C); made in house; host or cells: E. coli
Assay: In-solution binding specificity, ligand-observed MS, wild-type NS5B
Settings: WT + 204; defined as 100%
Text: To evaluate the binding specificity of fragment 204 to the palm domain of NS5B through interacting with certain residues indicated in the crystallographic data, we prepared two presumable binding-site mutants in the palm domain (C366A and M414T), and a control mutant in the thumb domain (M423T). […] Therefore, this experiment strongly implicated the finding by X-ray crystallography that fragment 204 binds to the palm domain of NS5B through interaction with Cys366 and Met414 was also valid in solution.
NS5B with a C-terminal 10-His tag was expressed in E. coli. Site-directed mutagenesis was performed using the Quick Site-directed mutagenesis kit according to the manufacturer's instructions (Stratagene, China). All constructs were verified by DNA sequencing. […]
In the primary screening, a mixture of 384 fragments (each at a final concentration of 25 μM) and NS5B at 50 μM was prepared in the binding buffer of 20 mM MES (pH 6.5), 300 mM NaCl and 10% glycerol, and incubated for 40 min at 25°C. […] The supernatant containing the ligands was evaporated by a speed vacuum, reconstituted in 80% methanol, and analyzed by LC/MS. […] Samples were all prepared in duplicate and analyzed separately.

| Compound | MS int. (%) |
| --- | --- |
| O=C(O)c1ccc(C(F)(F)F)cc1 [Fragment 204] | 100.0% |

Biological target: T2, NS5B (Hepatitis C virus genotype 1b, UniProt P26663)
T2 construct: NS5B with a C-terminal 10-His tag was expressed in E. coli; 10-His (C); made in house; host or cells: E. coli
Assay: X-ray crystallography of fragments soaked into NS5B crystals
Format: binding
Settings: fragments soaked at 5 mM
Text: Similar to other nucleotide polymerases, the domain distribution of apo HCV NS5B polymerase bears an anatomical resemblance to a right hand with subdomains representing the fingers, thumb and palm[50][51]. Structural and mechanistic studies of NS5B have indicated the existence of multiple allosteric binding domains including palm I, II and III pockets and thumb I and II sites targeted by reported inhibitors. To characterize the binding modes of the fragments studied, they were soaked in NS5B crystals to obtain the protein complex X-ray structures. We were able to resolve electron density corresponding to the soaked compound for five out of ten fragments (crystallographic data summary in Table S4).
Moreover, the interaction could be enhanced by a π-π conjugate between its benzene ring and Tyr448 (Figure 3A). Fragment 204 engages deep in the palm I pocket through its trifluoromethyl moiety forming a hydrogen bond with Ser368 and van der Waals interaction with Cys366. Additionally, the hydrophobic interaction with Met414 as well as the π-π conjugate to Tyr448 may also contribute to the relatively high binding affinity of this fragment (Figure 3B). Fragment 117 binds at the pocket mainly through van der Waals interactions with Met414, Cys366 and Ser368 (Figure 3C), whereas fragment 328 forms van der Waals interactions with Tyr415 and Cys366 (Figure 3D). We assume these weak interactions may result in the lower binding strengths observed for the two fragments. Fragment 162 binds NS5B in a small cavity of the thumb pocket, with its trifluoromethyl moiety extending a key hydrogen bond with Asn369 as well as making hydrophobic interactions with Ser371 and Glu481. To our knowledge, the three residues constitute a new active domain in the thumb region never disclosed before.
The final optimized NS5B crystals were grown by the hanging drop method using a well solution of 30 mg/mL protein, 20% (w/v) PEG-4000, 10% (v/v) glycerol, 5 mM DTT and 50 mM MES (pH 5.5) and diffracted to 2 Å. Fragments were soaked onto the NS5B crystals at a final concentration of 5 mM (2.38% DMSO) for 2–3 days. Diffraction data were collected at Rigaku MicorMax 007HF X-ray diffraction instrument with an R-AXIS HTC detector (Rigaku), and processed using CCP4[60]. The NS5B structure was solved by molecular replacement using NS5B (1QUV) as the search model. The fragment-bound NS5B complex structures were determined by rigid-body refinement using the apo NS5B structure as a starting model. Structure improvement proceeded with multiple rounds of manual model building in Coot, followed by refinement using CCP4. Fragment ligands were fitted into clear Fo-Fc electron density at the late stage of refinement. Images were rendered from PyMOL.

| Compound | Binding site in crystal structure |
| --- | --- |
| N#CCc1ccc(O)cc1 [Fragment 114] | palm I allosteric domain |
| O=C(O)c1ccc(C(F)(F)F)cc1 [Fragment 204] | palm I allosteric domain |
| N#CC(c1ccccc1)N1CCOCC1 (stereo not drawn) [Fragment 328] | palm I allosteric domain |
| Nc1ccc(C(F)(F)F)cn1 [Fragment 162] | thumb region |
| Cc1ccc2oc(=O)ccc2c1 [Fragment 117] | palm I allosteric domain |
